In brackets after ≈: the same amount, converted by molar mass. Several values for one entry are separate records, joined by “and”; a condition that tells them apart may be missing. Equal entries are not always repeated. Where two headings read alike, the source gives them in different places.
Columns and labels:
Mtb DNA gyrase = Mtb DNA gyrase (Mycobacterium tuberculosis (strain ATCC 25618 / H37Rv), UniProt P9WG45+P9WG47); test: Mtb DNA gyrase inhibition assay (gel-based); format: biochemical; settings: for IC50: Table 10, read-out: IC50 (µM) Mtb gyrase
Experimental: The IC50 against E. coli (A) and Mtb (C) gyrase were determined using the gel-based gyrase inhibition assays. The gyrase mediated DNA cleavage assays (B and D) were performed using pBR322. (A) 229 inhibits E. coli gyrase. Lane 1, rx pAB1. […] Lane 1, rx pAB1. […] 100 µM of CPDs were used. Symbols rx, nk, In, and sc represent relaxed, nicked, linear, and supercoiled DNA, respectively.
Agarose gel-based DNA gyrase inhibition assays were performed in 30 µL of 1 ×gyrase buffer (35 mM Tris-HCl, 24 mM KCl, 4 mM MgCl2, 2 mM DTT, 1.75 mM ATP, 0.1 mg/mL BSA, 6.5% glycerol, pH7.5) containing 400 ng of rx pAB1 at 37° C. 100 ng of DNA gyrase was used to supercoil the rx pAB1 in the presence of different concentrations of a gyrase inhibitor. After 15 minutes of incubation with the inhibitor at 37° C., all reactions were stopped with 1 µL of stop solution (3% SDS and 250 mM EDTA). Samples were analyzed by electrophoresis in 1% w/v agarose gels followed by ethidium bromide staining and photographed under UV light.

[1] = target: E. coli DNA topoisomerase I (Escherichia coli (strain K12), UniProt P06612); test: E. coli DNA topoisomerase I inhibition; format: biochemical; settings: gallates at 100 µM
Chain of E. coli DNA topoisomerase I (P06612 whole entry, looked up): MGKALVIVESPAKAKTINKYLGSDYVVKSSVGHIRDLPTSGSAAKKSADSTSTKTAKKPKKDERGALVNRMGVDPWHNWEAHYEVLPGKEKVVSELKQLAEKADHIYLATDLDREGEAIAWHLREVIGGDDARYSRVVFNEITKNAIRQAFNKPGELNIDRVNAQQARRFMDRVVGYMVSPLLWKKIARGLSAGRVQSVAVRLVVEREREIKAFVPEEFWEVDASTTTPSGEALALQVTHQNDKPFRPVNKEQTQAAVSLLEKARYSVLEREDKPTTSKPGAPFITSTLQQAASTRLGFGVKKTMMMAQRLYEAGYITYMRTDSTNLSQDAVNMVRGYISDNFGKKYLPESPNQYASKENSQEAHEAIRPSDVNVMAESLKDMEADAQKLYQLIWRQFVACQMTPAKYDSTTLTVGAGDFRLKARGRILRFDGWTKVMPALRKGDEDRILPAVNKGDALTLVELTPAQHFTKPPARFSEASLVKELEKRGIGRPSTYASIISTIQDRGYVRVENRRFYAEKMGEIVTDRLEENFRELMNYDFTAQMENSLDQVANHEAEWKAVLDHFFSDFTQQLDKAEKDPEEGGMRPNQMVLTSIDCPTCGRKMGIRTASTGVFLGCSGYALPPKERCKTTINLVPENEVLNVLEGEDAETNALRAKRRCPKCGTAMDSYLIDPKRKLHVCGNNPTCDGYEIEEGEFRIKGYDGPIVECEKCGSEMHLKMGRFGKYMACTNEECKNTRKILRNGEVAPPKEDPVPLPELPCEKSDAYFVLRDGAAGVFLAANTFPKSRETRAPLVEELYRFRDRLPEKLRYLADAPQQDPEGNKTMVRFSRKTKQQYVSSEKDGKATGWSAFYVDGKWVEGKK

[2] = target: human DNA topoisomerase I (Homo sapiens (Human), UniProt P11387); test: Human DNA topoisomerase I inhibition; format: biochemical; settings: gallates at 100 µM
Chain of human DNA topoisomerase I (P11387 whole entry): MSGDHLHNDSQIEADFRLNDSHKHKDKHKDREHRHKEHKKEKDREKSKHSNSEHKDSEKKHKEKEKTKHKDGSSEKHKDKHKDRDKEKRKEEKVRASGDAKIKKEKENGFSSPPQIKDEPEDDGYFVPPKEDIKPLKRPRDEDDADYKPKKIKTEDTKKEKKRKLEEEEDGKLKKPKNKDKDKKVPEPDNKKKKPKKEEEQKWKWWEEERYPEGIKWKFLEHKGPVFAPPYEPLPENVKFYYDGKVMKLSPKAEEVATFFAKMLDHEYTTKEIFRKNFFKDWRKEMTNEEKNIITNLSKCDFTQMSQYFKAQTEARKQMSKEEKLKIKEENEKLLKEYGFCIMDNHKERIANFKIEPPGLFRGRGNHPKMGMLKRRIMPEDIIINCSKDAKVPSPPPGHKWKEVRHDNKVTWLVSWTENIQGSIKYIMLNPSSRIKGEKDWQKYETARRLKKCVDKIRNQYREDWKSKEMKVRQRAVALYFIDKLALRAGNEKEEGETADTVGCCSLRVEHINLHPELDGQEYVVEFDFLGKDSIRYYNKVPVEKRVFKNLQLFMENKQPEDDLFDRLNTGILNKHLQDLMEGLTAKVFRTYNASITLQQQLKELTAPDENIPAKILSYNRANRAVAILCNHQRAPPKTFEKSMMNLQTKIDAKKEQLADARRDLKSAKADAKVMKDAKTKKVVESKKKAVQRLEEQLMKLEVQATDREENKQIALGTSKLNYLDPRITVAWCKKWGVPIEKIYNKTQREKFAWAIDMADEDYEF

E. coli DNA gyrase [3] = target: T1, E. coli DNA gyrase (Escherichia coli (strain K12), UniProt P0AES4+P0AES6); test: biochemical; format: biochemical
[4] = target: human DNA topoisomerase IIα (Homo sapiens (Human), UniProt P11388); test: Agarose gel-based inhibition assay against human DNA topoisomerase IIα; format: biochemical; settings: gallates at 100 µM
Chain of human DNA topoisomerase IIα (P11388 whole entry): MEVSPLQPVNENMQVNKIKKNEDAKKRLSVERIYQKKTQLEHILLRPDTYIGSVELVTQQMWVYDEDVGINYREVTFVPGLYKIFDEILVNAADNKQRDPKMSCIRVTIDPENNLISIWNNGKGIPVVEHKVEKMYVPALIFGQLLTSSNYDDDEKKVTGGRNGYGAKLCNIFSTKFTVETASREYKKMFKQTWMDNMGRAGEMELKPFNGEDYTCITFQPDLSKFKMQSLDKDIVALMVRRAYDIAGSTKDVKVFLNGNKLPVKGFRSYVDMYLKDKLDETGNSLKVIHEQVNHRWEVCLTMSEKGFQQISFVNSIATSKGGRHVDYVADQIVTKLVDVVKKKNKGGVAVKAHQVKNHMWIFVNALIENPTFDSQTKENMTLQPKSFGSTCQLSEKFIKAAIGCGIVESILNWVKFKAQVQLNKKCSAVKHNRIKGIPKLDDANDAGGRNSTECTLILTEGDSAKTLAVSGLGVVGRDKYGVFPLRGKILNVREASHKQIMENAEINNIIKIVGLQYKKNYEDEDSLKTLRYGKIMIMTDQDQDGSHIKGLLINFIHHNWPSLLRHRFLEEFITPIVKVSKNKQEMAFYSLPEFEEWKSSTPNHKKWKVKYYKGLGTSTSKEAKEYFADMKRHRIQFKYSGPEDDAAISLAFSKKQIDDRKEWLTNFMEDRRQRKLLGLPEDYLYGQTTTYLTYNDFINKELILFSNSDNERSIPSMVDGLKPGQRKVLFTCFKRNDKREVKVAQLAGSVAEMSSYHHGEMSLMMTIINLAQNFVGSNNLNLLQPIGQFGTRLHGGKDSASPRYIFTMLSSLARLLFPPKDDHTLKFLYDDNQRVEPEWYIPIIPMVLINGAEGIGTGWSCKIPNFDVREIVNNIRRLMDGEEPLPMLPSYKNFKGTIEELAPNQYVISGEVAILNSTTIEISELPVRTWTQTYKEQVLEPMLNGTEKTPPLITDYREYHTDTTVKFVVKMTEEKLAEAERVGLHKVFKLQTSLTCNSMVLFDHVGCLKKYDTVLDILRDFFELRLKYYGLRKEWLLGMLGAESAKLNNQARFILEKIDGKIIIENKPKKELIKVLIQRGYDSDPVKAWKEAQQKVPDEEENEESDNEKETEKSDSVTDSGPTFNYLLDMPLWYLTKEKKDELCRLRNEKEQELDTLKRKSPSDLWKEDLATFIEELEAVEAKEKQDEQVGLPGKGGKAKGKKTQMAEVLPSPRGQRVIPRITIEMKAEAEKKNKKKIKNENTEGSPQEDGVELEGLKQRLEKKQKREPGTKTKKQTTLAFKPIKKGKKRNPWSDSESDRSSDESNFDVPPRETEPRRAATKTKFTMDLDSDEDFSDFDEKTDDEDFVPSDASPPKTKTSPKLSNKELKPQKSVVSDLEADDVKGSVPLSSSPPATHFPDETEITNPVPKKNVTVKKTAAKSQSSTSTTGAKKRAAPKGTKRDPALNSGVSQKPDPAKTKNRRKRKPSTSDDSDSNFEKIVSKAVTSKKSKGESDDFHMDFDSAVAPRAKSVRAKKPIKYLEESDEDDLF

[5] = target: T2, E. coli DNA topoisomerase IV (Escherichia coli (strain K12), UniProt P0AFI2+P20083); test: E. coli DNA topoisomerase IV relaxation assay (gel-based); format: biochemical; settings: for IC50: IC50 Topoisomerase IV Gel-based, Table 8
T2 sequence (P0AFI2 whole entry, looked up): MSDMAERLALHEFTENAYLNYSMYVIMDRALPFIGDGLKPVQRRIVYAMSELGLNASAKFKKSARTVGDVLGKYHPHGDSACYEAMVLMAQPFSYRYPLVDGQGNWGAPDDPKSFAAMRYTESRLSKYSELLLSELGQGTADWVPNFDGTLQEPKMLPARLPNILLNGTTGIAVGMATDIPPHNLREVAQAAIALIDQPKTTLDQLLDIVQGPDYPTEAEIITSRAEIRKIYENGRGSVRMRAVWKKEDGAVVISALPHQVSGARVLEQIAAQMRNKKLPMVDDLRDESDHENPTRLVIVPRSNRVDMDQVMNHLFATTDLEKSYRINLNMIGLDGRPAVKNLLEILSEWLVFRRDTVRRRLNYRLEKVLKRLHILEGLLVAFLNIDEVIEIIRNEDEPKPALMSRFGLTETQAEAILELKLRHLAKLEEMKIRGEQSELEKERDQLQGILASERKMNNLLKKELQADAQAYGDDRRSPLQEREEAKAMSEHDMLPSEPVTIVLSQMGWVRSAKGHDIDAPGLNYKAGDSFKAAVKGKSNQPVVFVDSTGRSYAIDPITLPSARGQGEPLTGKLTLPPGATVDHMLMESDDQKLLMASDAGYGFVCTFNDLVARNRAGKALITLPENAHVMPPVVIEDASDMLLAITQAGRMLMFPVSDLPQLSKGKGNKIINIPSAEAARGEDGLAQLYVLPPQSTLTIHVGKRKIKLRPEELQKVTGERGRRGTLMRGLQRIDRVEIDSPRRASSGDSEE
T2 sequence (P20083 whole entry, looked up): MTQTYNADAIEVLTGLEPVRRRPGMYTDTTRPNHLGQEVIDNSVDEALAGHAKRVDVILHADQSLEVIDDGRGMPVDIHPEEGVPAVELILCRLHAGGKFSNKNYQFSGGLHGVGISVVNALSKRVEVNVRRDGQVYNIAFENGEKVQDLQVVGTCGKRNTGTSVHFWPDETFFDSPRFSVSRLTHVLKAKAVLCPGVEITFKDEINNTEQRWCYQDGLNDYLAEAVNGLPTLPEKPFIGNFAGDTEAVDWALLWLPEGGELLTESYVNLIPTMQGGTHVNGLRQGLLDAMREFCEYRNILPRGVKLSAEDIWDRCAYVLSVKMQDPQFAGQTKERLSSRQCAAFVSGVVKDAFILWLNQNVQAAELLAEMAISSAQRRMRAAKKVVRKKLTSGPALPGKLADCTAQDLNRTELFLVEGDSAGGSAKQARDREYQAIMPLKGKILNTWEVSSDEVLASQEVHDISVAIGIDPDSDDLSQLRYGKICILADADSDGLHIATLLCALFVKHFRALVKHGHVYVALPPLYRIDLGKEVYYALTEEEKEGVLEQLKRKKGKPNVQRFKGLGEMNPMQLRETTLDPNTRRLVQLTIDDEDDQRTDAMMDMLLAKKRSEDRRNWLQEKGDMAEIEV
Experimental: (§1) Relaxation assays by E. coli DNA topoisomerase IV and the ATPase assays were performed. […] Lane 1 is supercoiled plasmid pAB1. […] The supercoiled, fluorescently-labeled plasmid pAB1_FL905 was used.

E. coli DNA gyrase [6] = target: T1, E. coli DNA gyrase; test: E. coli DNA gyrase ATPase assay; format: biochemical; settings: AB-MECA and gallates at 100 µM
Experimental: E. coli DNA gyrase ATPase assays were performed in 60 µL of 1 ×gyrase ATPase buffer (10 mM Tris.HCl (pH 7.5), 0.2 mM EDTA, 1 mM magnesium chloride, 1 mM DTT, and 2% (w/v) glycerol) containing 50 nM E. coli DNA gyrase, 200 ng rx pAB1, 0.8 mM Phosphoenol pyruvate, 1.2 units of Pyruvate kinase, 1.7 units of lactate dehydrogenase, and 0.4 mM of NADH at 37° C. After the reaction mixtures are incubated on ice for 5 minutes, 2 mM of ATP is added to initiate the reaction. Absorbance at OD340nm is monitored for up to 30 minutes at 37° C. in a spectrophotometer.

MRSA = test: Minimum inhibitory concentration, broth microdilution; settings: Staphylococcus aureus
Experimental: (§2) Antibacterial minimum inhibitory concentrations (MICs) were obtained from three independent experiments using broth microdilution methods in 96-well plates according to Clinical and Laboratory Standards Institute guidelines. Cells were culture from singles colonies in MHIIB medium for 24 h at 37° C. in agitation (200 RPM). The cultures were then diluted using the same media to reach an OD600 of 0.1. Then, 50 µL of the diluted cultures were added to the plates holding 50 µL of serially diluted compounds in MHIIB. The plates were incubated at 37° C. for 20 h. The starting inoculum was fixated to 10^5 colony-forming units per ml.

E. coli DNA gyrase [7] = target: T1, E. coli DNA gyrase; test: SDFQ-based DNA gyrase inhibition assay; format: biochemical; settings: Table 8; read-out: IC50 Gyrase SDFQ
Experimental: 100 ng of DNA gyrase was used to supercoil the rx pAB1_FL905 in the presence of different concentrations of a gyrase inhibitor. […] The IC50 values were estimated by nonlinear fitting of the following equation: […]
where F is the fluorescence intensity at the x concentration of an min inhibitor. Fmax and Fmin are the maximum and minimum fluorescence of the DNA sample, respectively. P is a slope parameter.

E. coli DNA gyrase [8] = target: T1, E. coli DNA gyrase; test: Agarose gel-based DNA gyrase inhibition assay; format: biochemical; settings: for IC50: Table 8, read-out: IC50 Gyrase Gel-based
Experimental: 100 ng of DNA gyrase was used to supercoil the rx pAB1 in the presence of different concentrations of a gyrase inhibitor. […] Samples were analyzed by electrophoresis in 1% w/v agarose gels followed by ethidium bromide staining and photographed under UV light.

S. aureus (ATCC 14775) = test: Minimum inhibitory concentration, broth microdilution; settings: Staphylococcus aureus
E. coli (ATCC 25922) = test: as above; settings: Escherichia coli
Experimental: as §2

[9] = target: T2, E. coli DNA topoisomerase IV; test: SDFQ-based DNA relaxation assay with E. coli DNA topoisomerase IV; format: biochemical
Experimental: as §1

E. coli imp = test: microbe, parasite or virus in culture; settings: Escherichia coli, read-out: MIC E. coli imp BAS3023
Experimental: as §2

B. subtilis (ATCC 6633) = test: Minimum inhibitory concentration, broth microdilution; settings: Bacillus subtilis, ATCC6633, read-out: MIC B. subtilis ATCC 6633
Experimental: as §2

E. coli DNA gyrase [10] = target: T1, E. coli DNA gyrase; test: DNA gyrase mediated DNA cleavage assay; format: biochemical; settings: pBR322
Experimental: 250 ng of supercoiled pBR322 plasmid were incubated with 50 nM of E. coli DNA gyrase in reactions containing 35 mM Tris-HCl, 24 mM KCl, 4 mM MgCl2, 2 mM DTT, 0.1 mg/mL BSA, 6.5% glycerol, and 1.75 mM ATP, in presence of 200 µM of compounds, at 37° C. for 15 min. Then, 0.2% (w/v) of SDS and 0.1 mg/mL proteinase K were added, and samples were incubated at 37° C. for 1 h. […] Samples were examined by electrophoresis in 1% w/v agarose gel containing 0.5 µg/mL ethidium bromide and photographed under UV light.

Mtb = Mtb whole cell assay (% inhibition, MIC); format: cell-based, Mycobacterium tuberculosis; settings: Mycobacterium tuberculosis
in vitro = settings: human
M. abscessus = test: MIC against M. abscessus; format: cell-based, Mycobacterium abscessus; settings: Mycobacteroides abscessus
[11] = ATCC33591 / MRSA, read-out: MIC MRSA ATCC 33591
[12] = ATCC14775, read-out: MIC S. aureus ATCC 14775
[13] = ATCC25922, read-out: MIC E coli ATCC 25922, Table 9
[14] = ATCC14775, read-out: MIC (µM) Sa
[15] = ATCC25922, read-out: MIC (µM) Ec, E. coli strain ATCC25922
[16] = ATCCBAA44 / MRSA, read-out: MIC S. aureus (MRSA) ATCC BAA44

CNC(=O)[C@H]1O[C@@H](n2cnc3c(NCc4ccc(N)cc4)ncnc32)[C@H](O)[C@@H]1O [AB-MECA, reference compound]
inhibition of Mtb DNA gyrase activities (Mtb DNA gyrase): did not inhibit
inhibition of E. coli DNA topoisomerase I [1]: did not inhibit
inhibition of human DNA topoisomerase I [2]: did not inhibit
inhibition of E. coli DNA gyrase activities (E. coli DNA gyrase [3]): does not inhibit
inhibition of human DNA topoisomerase IIα [4]: did not inhibit
inhibition of E. coli DNA topoisomerase IV [5]: did not inhibit
inhibition of the ATPase activities of E. coli DNA gyrase (E. coli DNA gyrase [6]): did not inhibit

CCCCOC(=O)c1cc(O)c(O)c(O)c1 [Butyl gallate, butyl gallate]
MIC (MRSA; [11]): > 200 µM
IC50 (E. coli DNA gyrase [7]): > 100 µM
IC50 (E. coli DNA gyrase [8]): > 100 µM
MIC (S. aureus (ATCC 14775); [12]): > 200 µM
MIC (E. coli (ATCC 25922); [13]): > 200 µM
IC50 [9]: > 100 µM
MIC (E. coli imp): > 200 µM
MIC (B. subtilis (ATCC 6633)): > 64 µg/mL and > 200 µM
IC50 [5]: > 100 µM

O=C(O)CCNc1ccc(NCCC(=O)O)c2c1C(=O)c1ccccc1C2=O [Compound 173, 3-({4-[(2-carboxyethyl)amino]-9,10-dioxo-9,10-dihydroanthracen-1-yl}amino)propanoic acid]
MIC (MRSA; MRSA, read-out: Minimum Inhibitory Concentration S.aureus MRSA): 100 µM
inhibition of E. coli DNA gyrase activities (E. coli DNA gyrase [8]; 50 µM of compounds): completely inhibited
IC50 (E. coli DNA gyrase [3]; IC50 (15-[…] µM), bin of Table 2): 15 to 25 µM
E. coli DNA gyrase-mediated DNA breaks and nicking (E. coli DNA gyrase [10]): cause DNA nicking

C[n+]1c(-c2ccc(/C=N/NC(=O)c3cccc(C(=O)N/N=C/c4ccc(-c5cn6ccccc6[n+]5C)cc4)c3)cc2)cn2ccccc21 [Compound 259]
MIC (Mtb): > 200 µM
IC50 (Mtb DNA gyrase): 2.6 µM
IC50 (in vitro): > 200 µM
MIC (S. aureus (ATCC 14775); [14]): 200 µM
MIC (E. coli (ATCC 25922); [15]): > 200 µM
MIC (M. abscessus): > 200 µM

C[n+]1c(-c2ccc(/C=N/NC(=O)c3cncc(C(=O)N/N=C/c4ccc(-c5cn6ccccc6[n+]5C)cc4)c3)cc2)cn2ccccc21 [Compound 260]
MIC (Mtb): > 200 µM
IC50 (Mtb DNA gyrase): 92 µM
IC50 (in vitro): > 200 µM
MIC (S. aureus (ATCC 14775); [14]): > 200 µM
MIC (E. coli (ATCC 25922); [15]): > 200 µM
MIC (M. abscessus): > 200 µM

CCCCSc1ccn2cc(-c3ccc(/C=N/NC(=O)c4ccc(C(=O)N/N=C/c5ccc(-c6cn7ccc(SCCCC)cc7[n+]6C)cc5)cc4)cc3)[n+](C)c2c1 [Compound 262]
MIC (Mtb): 122 µM
IC50 (Mtb DNA gyrase): 118 µM
IC50 (in vitro): > 200 µM
MIC (S. aureus (ATCC 14775); [14]): > 200 µM
MIC (E. coli (ATCC 25922); [15]): > 200 µM
MIC (M. abscessus): > 200 µM

C[n+]1c(-c2ccc(/C=N/NC(=O)c3ccc(C(=O)N/N=C/c4ccc(-c5cn6ccccc6[n+]5C)cc4)nc3)cc2)cn2ccccc21 [Compound 264]
MIC (Mtb): 6.2 µM
IC50 (Mtb DNA gyrase): 2.1 µM
IC50 (in vitro): > 200 µM
MIC (S. aureus (ATCC 14775); [14]): 100 µM
MIC (M. abscessus): 13.5 µM

CCCCCCCCCCCCOC(=O)c1cc(O)c(O)c(O)c1 [Dodecyl gallate, dodecyl gallate]
MIC (MRSA; [11]): 200 µM
IC50 (E. coli DNA gyrase [7]): 13.8 µM
IC50 (E. coli DNA gyrase [8]): 15 µM
MIC (S. aureus (ATCC 14775); [12]): 67.7 µg/mL and 200 µM
MIC (E. coli (ATCC 25922); [13]): > 200 µM
IC50 [9]: 36.9 µM
MIC (E. coli imp): 200 µM (≈ 67.7 µg/mL)
MIC (B. subtilis (ATCC 6633)): 8 µg/mL and 25 µM to 50 µM
inhibition of E. coli DNA topoisomerase IV [5]: strongly inhibit
IC50 [5]: 50 µM

CO[C@@H]1[C@@H](OC(N)=O)[C@@H](O)[C@H](Oc2ccc3c(O)c(NC(=O)c4ccc(O)c(CC=C(C)C)c4)c(=O)oc3c2C)OC1(C)C [Novobiocin, novobiocin, reference compound]
MIC (MRSA; [11]): < 6.25 µM
MIC (S. aureus (ATCC 14775); [12]): < 6.25 µM
MIC (E. coli (ATCC 25922); [13]): 158 µM
MIC (E. coli imp): 6.25 µM (≈ 3.83 µg/mL)
MIC (B. subtilis (ATCC 6633)): < 625 µM

CCCCCCCCOC(=O)c1cc(O)c(O)c(O)c1 [Octyl gallate, octyl gallate]
MIC (MRSA; [11]): 100 µM
MIC (MRSA; [16]): 56.5 µg/mL
IC50 (E. coli DNA gyrase [7]): 26 µM
IC50 (E. coli DNA gyrase [8]): 50 µM
MIC (S. aureus (ATCC 14775); [12]): 56.5 µg/mL and 200 µM
MIC (E. coli (ATCC 25922); [13]): > 200 µM
MIC (E. coli (ATCC 25922); ATCC25922, read-out: MIC E. coli ATCC 25922, Table 7): 226 µg/mL
IC50 [9]: 41.2 µM
MIC (E. coli imp): 50 µM (≈ 14.1 µg/mL)
MIC (B. subtilis (ATCC 6633)): 4 µg/mL and 12.5 µM to 25 µM
inhibition of E. coli DNA topoisomerase IV [5]: strongly inhibit
IC50 [5]: 50 µM

O=C(Oc1ccccc1)c1cc(O)c(O)c(O)c1 [Phenyl gallate, phenyl gallate]
MIC (MRSA; [11]): 200 µM
MIC (MRSA; [16]): 64 µg/mL
IC50 (E. coli DNA gyrase [7]): > 100 µM
IC50 (E. coli DNA gyrase [8]): > 100 µM
MIC (S. aureus (ATCC 14775); [12]): 64 µg/mL and 200 µM
MIC (E. coli (ATCC 25922); [13]): > 200 µM
IC50 [9]: > 100 µM
MIC (E. coli imp): > 200 µM
MIC (B. subtilis (ATCC 6633)): > 64 µg/mL and > 200 µM
IC50 [5]: > 100 µM

Source: patent US20230364057A1, “BACTERIAL DNA GYRASE INHIBITORS AND METHODS OF USE THEREOF” (THE FLORIDA INTERNATIONAL UNIVERSITY BOARD OF TRUSTEES, priority 2022, published 2023)
